Among the data in patent US11208400B2, “Substituted 6-(1H-pyrazol-1-yl)pyrimidin-4-amine derivatives and uses thereof” (Bayer Aktiengesellschaft, priority 2016, dated 2021) are IC50 values, retold here.

The experiment addresses T1, human Npt2a (Homo sapiens, UniProt Q06495).
T1 construct: expressed in transfected cells
T1 sequence (Q06495 1-639): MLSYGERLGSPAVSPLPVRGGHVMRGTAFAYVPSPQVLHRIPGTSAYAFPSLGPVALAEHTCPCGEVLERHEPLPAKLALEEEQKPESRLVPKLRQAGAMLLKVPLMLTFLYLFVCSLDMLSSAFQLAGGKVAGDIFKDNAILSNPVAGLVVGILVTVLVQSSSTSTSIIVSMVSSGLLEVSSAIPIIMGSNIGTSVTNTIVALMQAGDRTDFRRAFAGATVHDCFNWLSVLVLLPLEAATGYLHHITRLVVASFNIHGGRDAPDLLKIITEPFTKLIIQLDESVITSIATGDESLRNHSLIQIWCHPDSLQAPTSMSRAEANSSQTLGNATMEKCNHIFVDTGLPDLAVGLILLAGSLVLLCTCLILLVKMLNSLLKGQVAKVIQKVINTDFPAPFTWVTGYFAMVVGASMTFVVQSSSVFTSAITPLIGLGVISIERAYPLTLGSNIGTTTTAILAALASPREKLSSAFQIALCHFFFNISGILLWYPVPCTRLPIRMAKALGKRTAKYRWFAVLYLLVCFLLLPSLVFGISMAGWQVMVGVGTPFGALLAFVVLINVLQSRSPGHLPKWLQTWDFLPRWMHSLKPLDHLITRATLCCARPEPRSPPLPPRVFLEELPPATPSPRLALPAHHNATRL
Nature of the experiment: Npt2a activity cell based assay, membrane potential dye, CHO T-REx hNpt2a cells. Conditions: doxycycline-induced, depolarization by sodium phosphate influx, average or median values if tested more than once. In short, it runs like this:
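Doxycycline-induced (0.5 μg/mL, 24 h) CHO T-REx cells were loaded with membrane potential dye in sodium-free NHE buffer (pH 7.4) and exposed to compound (50 μM–1 nM, 5 min, room temperature).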
In general, IC50 refers to the midpoint of a concentration-inhibition curve. The low end stands for higher potency, the high end for lower potency. As for `CCc1c(-c2ccc(F)cc2)nn(C2CC2)c1Nc1cc(-n2nc(C)cc2C)ncn1` [Example 119, N-[1-cyclopropyl-4-ethyl-3-(4-fluorophenyl)-1H-pyrazol-5-yl]-6-(3,5-dimethyl-1H-pyrazol-1-yl)pyrimidin-4-amine], inhibition was half-maximal at 0.87 µM (IC50).

The compound `CCc1c(-c2ccc(F)cc2)nn(C2CC2)c1Nc1cc(-n2nc(C)c(Cl)c2C)ncn1` [Example 120, 6-(4-chloro-3,5-dimethyl-1H-pyrazol-1-yl)-N-[1-cyclopropyl-4-ethyl-3-(4-fluorophenyl)-1H-pyrazol-5-yl]pyrimidin-4-amine] yielded an IC50 of 1.45 µM. Compared with the last compound, the IC50 is about 1.7-fold higher.

Compound `CCc1c(-c2ccc(F)cc2)nn(CC2CC2)c1Nc1cc(-n2nc(C)cc2C)ncn1` [Example 121, N-[1-(cyclopropylmethyl)-4-ethyl-3-(4-fluorophenyl)-1H-pyrazol-5-yl]-6-(3,5-dimethyl-1H-pyrazol-1-yl)pyrimidin-4-amine] yielded an IC50 of less than 0.0016 µM.

On to `COC(=O)c1ccc(-c2c(C)c(Nc3cc(-n4nc(C)cc4C)ncn3)nn2C)cc1` [Example 122, methyl 4-(3-{[6-(3,5-dimethyl-1H-pyrazol-1-yl)pyrimidin-4-yl]amino}-1,4-dimethyl-1H-pyrazol-5-yl)benzoate], for which inhibition was half-maximal at 0.025 µM (IC50).

`CCc1c(Nc2cc(-n3nc(C)c(C(=O)N4CCC4)c3C)ncn2)nn(C)c1-c1ccc(F)cc1` [Example 123, azetidin-1-yl[1-(6-{[4-ethyl-5-(4-fluorophenyl)-1-methyl-1H-pyrazol-3-yl]amino}pyrimidin-4-yl)-3,5-dimethyl-1H-pyrazol-4-yl]methanone] came in with an IC50 of 0.395 µM. This IC50 is about 16-fold higher than that of the compound before.

Consider `CCc1c(Nc2cc(-n3nc(C)c(C(=O)N4CC(F)(F)C4)c3C)ncn2)nn(C)c1-c1ccc(F)cc1` [Example 124, (3,3-difluoroazetidin-1-yl) [1-(6-{[4-ethyl-5-(4-fluorophenyl)-1-methyl-1H-pyrazol-3-yl]amino}pyrimidin-4-yl)-3,5-dimethyl-1H-pyrazol-4-yl]methanone], for which the IC50 came to 0.155 µM.

Take `CCc1c(Nc2cc(-n3nc(C)cc3C(C)(C)O)ncn2)nn(C)c1-c1ccc(F)cc1` [Example 125, 2-[1-(6-{[4-ethyl-5-(4-fluorophenyl)-1-methyl-1H-pyrazol-3-yl]amino}pyrimidin-4-yl)-3-methyl-1H-pyrazol-5-yl]propan-2-ol]: half-maximal inhibition (IC50) was put at 0.0203 µM.

As to `CCc1c(Nc2cc(-n3nc(C)c(C(=O)N4CC(F)C4)c3C)ncn2)nn(C)c1-c1ccc(F)cc1` [Example 126, [1-(6-{[4-ethyl-5-(4-fluorophenyl)-1-methyl-1H-pyrazol-3-yl]amino}pyrimidin-4-yl)-3,5-dimethyl-1H-pyrazol-4-yl](3-fluoroazetidin-1-yl)methanone], the IC50 came out at 0.975 µM. This IC50 lies about 48-fold higher than the previous one.

For the compound `CCc1c(Nc2cc(-n3nc(C)c(C(=O)N(C)C)c3C)ncn2)nn(C)c1-c1ccc(F)cc1` [Example 127, 1-(6-{[4-ethyl-5-(4-fluorophenyl)-1-methyl-1H-pyrazol-3-yl]amino}pyrimidin-4-yl)-N,N,3,5-tetramethyl-1H-pyrazole-4-carboxamide], the IC50 worked out at 1.2 µM.

Compound `CCc1c(Nc2cc(-n3nc(C)c(C(=O)N4CCC(C(F)F)C4)c3C)ncn2)nn(C)c1-c1ccc(F)cc1` (stereo not drawn) [Example 128, [3-(difluoromethyl)pyrrolidin-1-yl][1-(6-{[4-ethyl-5-(4-fluorophenyl)-1-methyl-1H-pyrazol-3-yl]amino}pyrimidin-4-yl)-3,5-dimethyl-1H-pyrazol-4-yl]methanone] had an IC50 of 1.3 µM.

Take `Cc1cc(C)n(-c2cc(Nc3c(Cl)c(-c4ccc(F)cc4)nn3CC(F)F)ncn2)n1` [Example 129, N-[4-chloro-1-(2,2-difluoroethyl)-3-(4-fluorophenyl)-1H-pyrazol-5-yl]-6-(3,5-dimethyl-1H-pyrazol-1-yl)pyrimidin-4-amine]: the IC50 turned out to be 0.078 µM.

The compound `Cc1nn(-c2cc(Nc3nn(CC(F)F)c(-c4ccc(F)cc4)c3Cl)ncn2)c(C)c1Cl` [Example 130, N-[4-chloro-1-(2,2-difluoroethyl)-5-(4-fluorophenyl)-1H-pyrazol-3-yl]-6-(4-chloro-3,5-dimethyl-1H-pyrazol-1-yl)pyrimidin-4-amine] gave an IC50 of 0.028 µM.

In turn, `CCc1c(Nc2cc(-n3nc(C)cc3C)ncn2)n[nH]c1-c1ccc(F)cc1C` [Example 131, 6-(3,5-dimethyl-1H-pyrazol-1-yl)-N-[4-ethyl-5-(4-fluoro-2-methylphenyl)-1H-pyrazol-3-yl]pyrimidin-4-amine] returned an IC50 of 1.6 µM.

`Cc1cc(C)n(-c2cc(Nc3nn(CC(F)F)c(-c4ccc(F)cc4)c3Cl)ncn2)n1` [Example 132, N-[4-chloro-1-(2,2-difluoroethyl)-5-(4-fluorophenyl)-1H-pyrazol-3-yl]-6-(3,5-dimethyl-1H-pyrazol-1-yl)pyrimidin-4-amine]: the midpoint of inhibition, the IC50, lay at 0.039 µM.

`CCc1c(Nc2cc(-n3nc(C)c4c3CCCC4=O)ncn2)nn(C)c1-c1ccc(F)cc1` [Example 133, 1-(6-{[4-ethyl-5-(4-fluorophenyl)-1-methyl-1H-pyrazol-3-yl]amino}pyrimidin-4-yl)-3-methyl-1,5,6,7-tetrahydro-4H-indazol-4-one] displayed an IC50 of 0.057 µM.

The compound `Cc1cc(C)n(-c2cc(Nc3n[nH]c(-c4ccc(C#N)cc4)c3C)ncn2)n1` [Example 135, 4-(3-{[6-(3,5-dimethyl-1H-pyrazol-1-yl)pyrimidin-4-yl]amino}-4-methyl-1H-pyrazol-5-yl)benzonitrile] registered an IC50 of 0.7 µM.

Compound `CCOC(=O)c1c(C)nn(-c2cc(Nc3n[nH]c(-c4ccc(C#N)cc4)c3C)ncn2)c1C` [Example 136, ethyl 1-(6-{[5-(4-cyanophenyl)-4-methyl-1H-pyrazol-3-yl]amino}pyrimidin-4-yl)-3,5-dimethyl-1H-pyrazole-4-carboxylate] showed an IC50 of 0.36 µM.

`Cc1nn(-c2cc(Nc3n[nH]c(-c4ccc(C#N)cc4)c3C)ncn2)c(C)c1Cl` [Example 137, 4-(3-{[6-(4-chloro-3,5-dimethyl-1H-pyrazol-1-yl)pyrimidin-4-yl]amino}-4-methyl-1H-pyrazol-5-yl)benzonitrile] displayed an IC50 of 0.071 µM.

`Cc1nn(-c2cc(Nc3nn(C)c(-c4ccc(F)cc4)c3C)ncn2)c(C)c1C1(O)CC1` [Example 138, 1-[1-(6-{[5-(4-fluorophenyl)-1,4-dimethyl-1H-pyrazol-3-yl]amino}pyrimidin-4-yl)-3,5-dimethyl-1H-pyrazol-4-yl]cyclopropanol] had an IC50 of 0.15 µM.

Regarding `Cc1nn(-c2cc(Nc3c(C)c(-c4ccc(F)cc4)nn3C)ncn2)c(C(F)F)c1Cl` [Example 139, 6-[4-chloro-5-(difluoromethyl)-3-methyl-1H-pyrazol-1-yl]-N-[3-(4-fluorophenyl)-1,4-dimethyl-1H-pyrazol-5-yl]pyrimidin-4-amine], the IC50 worked out at 0.13 µM. The IC50 values of the last two compounds are within 1.5-fold of each other.

On to `Cc1nn(-c2cc(Nc3n[nH]c(-c4ccc(F)cc4)c3C)ncn2)c(C(F)F)c1Cl` [Example 140, 6-[4-chloro-5-(difluoromethyl)-3-methyl-1H-pyrazol-1-yl]-N-[5-(4-fluorophenyl)-4-methyl-1H-pyrazol-3-yl]pyrimidin-4-amine], for which inhibition was half-maximal at 0.023 µM (IC50).

In the case of `Cc1cc(C)n(-c2cc(Nc3c(C)c(-c4ccc(C#N)cc4)nn3CC3CC3)ncn2)n1` [Example 141, 4-[1-(cyclopropylmethyl)-5-{[6-(3,5-dimethyl-1H-pyrazol-1-yl)pyrimidin-4-yl]amino}-4-methyl-1H-pyrazol-3-yl]benzonitrile], inhibition was half-maximal at 0.003 µM (IC50).

With `Cc1cc(C(F)F)n(-c2cc(Nc3c(C)c(-c4ccc(C#N)cc4)nn3CC3CC3)ncn2)n1` [Example 142, 4-[1-(cyclopropylmethyl)-5-{(6-[5-(difluoromethyl)-3-methyl-1H-pyrazol-1-yl]pyrimidin-4-yl}amino)-4-methyl-1H-pyrazol-3-yl]benzonitrile], the IC50 stood at 0.003 µM.

In the case of `CCc1c(Nc2cc(-n3nc(C)cc3C)ncn2)nn(CC2CC2)c1-c1ccc(F)cc1` [Example 143, N-[1-(cyclopropylmethyl)-4-ethyl-5-(4-fluorophenyl)-1H-pyrazol-3-yl]-6-(3,5-dimethyl-1H-pyrazol-1-yl)pyrimidin-4-amine], the IC50 turned out to be 0.415 µM.

Take `CCc1c(Nc2cc(-n3nc(C)c(Cl)c3C)ncn2)nn(CC2CC2)c1-c1ccc(F)cc1` [Example 144, 6-(4-chloro-3,5-dimethyl-1H-pyrazol-1-yl)-N-[1-(cyclopropylmethyl)-4-ethyl-5-(4-fluorophenyl)-1H-pyrazol-3-yl]pyrimidin-4-amine]: 0.52 µM corresponded to half-maximal inhibition (IC50). The IC50 values of the last two compounds are within 1.5-fold of each other.

Turning to `CCOC(=O)c1c(C)nn(-c2cc(Nc3nn(CC4CC4)c(-c4ccc(F)cc4)c3CC)ncn2)c1C` [Example 145, ethyl 1-(6-{[1-(cyclopropylmethyl)-4-ethyl-5-(4-fluorophenyl)-1H-pyrazol-3-yl]amino}pyrimidin-4-yl)-3,5-dimethyl-1H-pyrazole-4-carboxylate], the midpoint of inhibition, the IC50, lay at 0.17 µM.

For `CCOC(=O)c1c(C)nn(-c2cc(Nc3c(CC)c(-c4ccc(F)cc4)nn3CC3CC3)ncn2)c1C` [Example 147, ethyl 1-(6-{[1-(cyclopropylmethyl)-4-ethyl-3-(4-fluorophenyl)-1H-pyrazol-5-yl]amino}pyrimidin-4-yl)-3,5-dimethyl-1H-pyrazole-4-carboxylate], the IC50 was determined as 0.003 µM.
